Experimental data from patent publication US20250345391A1, “COMPOSITIONS AND METHODS FOR THE TREATMENT OF SEPSIS” (Children's Hospital Medical Center, priority 2022, published 2025).

Assays:
syndecan-1 = test: Plasma syndecan-1 (glycocalyx damage) after CLP sepsis, ELISA; assay type: in vivo, Male C57BL/6 mice; settings: 6 h after CLP; colivelin 100 or 200 μg/kg i.p. at 1 h after CLP; vs vehicle; dose-independent
Excerpt: The investigation conformed to the National Institutes of Health Guide for the Care and Use of Laboratory Animals (Eighth Edition, 2011) and was approved by the Institutional Animal Care and Use Committee of the Cincinnati Children's Hospital Medical Center. Male C57BL/6 mice were obtained from Charles River Laboratories International, Inc. (Wilmington, MA). Mice were used at 3-5 months of age to mimic the equivalent for human ranges from 20-25 years (29). Male mice only were chosen for the experimentation to avoid interference from female hormonal fluctuations in sepsis responses during the estrous cycle. Mice were housed in pathogen-free conditions under a 10-h light/14-h dark cycle with free access to food and water. […] Plasma levels of tumor necrosis factor-α (TNFα), interleukin (IL)-1β, IL-6, IL-10, keratinocytes-derived chemokine (KC), and macrophage inflammatory proteins (MIP-1α) were used as indices of the systemic inflammatory response and were evaluated by a commercially available multiplex array system (Milliplex, Millipore Corporation, Billerica, MA). Plasma levels of endoglin, intercellular adhesion molecule-1 (ICAM-1), P-selectin, proprotein convertase subtilisin/kexin type 9 (PCSK9), and angiopoietin-2 (Ang 2) were used as indices of endothelial injury and were evaluated by a commercially available multiplex array system (R&D Systems, Minneapolis, MN). […]

[1] = system: Myeloperoxidase (MPO) activity in lung, kidneys and liver tissue; test: Myeloperoxidase activity (neutrophil infiltration) in organs after CLP sepsis; assay type: in vivo, Male C57BL/6 mice; settings: 6 h after CLP; colivelin 100 or 200 μg/kg i.p. at 1 h after CLP; vs vehicle; dose-independent
Excerpt: The investigation conformed to the National Institutes of Health Guide for the Care and Use of Laboratory Animals (Eighth Edition, 2011) and was approved by the Institutional Animal Care and Use Committee of the Cincinnati Children's Hospital Medical Center. Male C57BL/6 mice were obtained from Charles River Laboratories International, Inc. (Wilmington, MA). Mice were used at 3-5 months of age to mimic the equivalent for human ranges from 20-25 years (29). Male mice only were chosen for the experimentation to avoid interference from female hormonal fluctuations in sepsis responses during the estrous cycle. Mice were housed in pathogen-free conditions under a 10-h light/14-h dark cycle with free access to food and water. Mice were anesthetized with 2.0% isoflurane in 50% oxygen and polymicrobial sepsis was induced by cecal ligation and puncture (CLP) (30). After a midline laparotomy, the cecum was exteriorized, ligated and punctured twice with a 23-G needle. The cecum was then returned into the peritoneal cavity and the abdominal incision was closed. After the procedure, mice were randomly assigned to three treatment groups: a vehicle-treated group received distilled water (200 μl/mouse) intraperitoneally (i.p.); a 100 μg colivelin-treated group received the colivelin at 100 μg/kg i.p., and a 200 μg colivelin-treated group received the colivelin at 200 μg/kg i.p. at 1 h after CLP. The intraperitoneal injection was chosen to allow for a rapid uptake and bioavailability of the peptide. All groups of mice also received fluid resuscitation (35 ml/kg normal saline solution subcutaneously) immediately after, at 3 h and 12 h after the CLP procedure. […] Myeloperoxidase (MPO) activity was measured as an indicator of neutrophil infiltration in lung, kidneys and liver tissue. […] The rate of change in absorbance was measured by spectrophotometry at 650 nm. MPO activity was defined as the quantity of enzyme degrading 1 μmol of hydrogen peroxide/min at 37° C. and expressed in units per 100 mg weight of tissue.

Colivelin (SALLRSIPAPAGASRLLLLTGEIDLP)
significantly decreased: Levels of plasma syndecan-1 (syndecan-1) | MPO activity in kidneys [1] | MPO activity in liver [1] | MPO activity in lungs [1]
